Tests used:
white blood cells = test: Therapeutical effect on white blood cells of mice pretreated with CTX; assay type: in vivo, CDF1 male mice; conditions: for number of white blood cell account, Day 6: Day 6: after CTX 30 mg/kg IP daily for 6 days, before therapeutical treatment started on 7th day
Method: This activity was determined using CDF1 male mice: mice were grouped and treated with daily CTX IP injection of 30 mg/kg for 6 days. […] Positive control group was treated with daily subcutaneously injection of 20 μg/kg G-CSF. Peripheral blood samples were collected and blood cells counted on the 10th day.

[1] = system: mouse peripheral white blood cells; test: Activity of increasing white blood cells (WBC) in mice; assay type: in vivo, CDF1 male mice; conditions: peripheral blood on day 7
Method: This activity was determined using CDF1 male mice (18-20 g): mice were grouped as: vehicle, 30 mg/kg cyclophosphamide (CTX), 15 mg/kg test compounds. The mice were treated by IP injection: test compounds on day 1, 3, and 5 for three doses, vehicle and CTX daily for 6 days. On day 7, peripheral blood samples were collected and blood cells counted.

[2] = system: white blood cells of beagle dog; test: Activity of increasing WBC in dogs; assay type: in vivo; conditions: for WBC: blood count day 5; for % increase (compared with the control): day 5
Method: The effect of the test compounds was tested on beagle dog with a daily IV injection at different doses for four days. The blood account was done at day 5.

COc1ccc(-n2c3cssc-3c(NC(=O)c3cc(C(F)(F)F)cc(C(F)(F)F)c3)c2=O)c(OC)c1 [compound 0058, N-[4-(2,4-Dimethoxy-phenyl)-5-oxo-4,5-dihydro-[1,2]dithiolo[4,3-b]pyrrol-6-yl]-3,5-bis-trifluoromethyl-benzamide]
number of white blood cell account, Day 6 (white blood cells): 2.1 ± 0.8 ×10^9/L
number of white blood cell account, Day 10 (white blood cells; Day 10: CTX 30 mg/kg x 6 days, then test compound 15 mg/kg daily for 3 days from day 7): 16.2 ± 2.1 ×10^9/L
WBC ([1]; test compound 15 mg/kg IP on day 1, 3 and 5): 23.9 ± 8.9 ×10^9/L
WBC ([2]; 1 mg/kg daily IV for four days): 13.0 ± 2.0 ×10^9/L
% increase (compared with the control) ([2]; 1 mg/kg daily IV for four days): 15.9%
WBC ([2]; 2 mg/kg daily IV for four days): 16.8 ± 1.0 ×10^9/L
% increase (compared with the control) ([2]; 2 mg/kg daily IV for four days): 48.2%
WBC ([2]; 4 mg/kg daily IV for four days): 21.5 ± 4.1 ×10^9/L
% increase (compared with the control) ([2]; 4 mg/kg daily IV for four days): 90.3%
WBC ([2]; 8 mg/kg daily IV for four days): 28.8 ± 7.0 ×10^9/L
% increase (compared with the control) ([2]; 8 mg/kg daily IV for four days): 154.9%
effect on white blood accounts in dogs (in words) ([2]; daily IV, 1-8 mg/kg, four days): significantly increased white blood accounts

O=P1(N(CCCl)CCCl)NCCCO1 (centres unmarked) [CTX, cyclophosphamide, reference compound]
number of white blood cell account, Day 6 (white blood cells): 1.5 ± 0.2 ×10^9/L
number of white blood cell account, Day 10 (white blood cells; Day 10: CTX 30 mg/kg IP daily for 6 days only): 4.8 ± 0.8 ×10^9/L
WBC ([1]; CTX 30 mg/kg IP daily for 6 days): 1.41 ± 0.50 ×10^9/L

B1: G-CSF: granulocyte-colony stimulating factor, protein that selectively stimulates production of white blood cells; positive control (protein, chains of the INN, looked up)
chain: MTPLGPASSLPQSFLLKCLEQVRKIQGDGAALQEKLCATYKLCHPEELVLLGHSLGIPWAPLSSCPSQALQLAGCLSQLHSGLFLYQGLLQALEGISPELGPTLDTLQLDVADFATTIWQQMEELGMAPALQPTQGAMPAFASAFQRRAGGVLVASHLQSFLEVSYRVLRHLAQP
modifications: N-terminal methionine, non-glycosylated
number of white blood cell account, Day 6 (white blood cells): 1.8 ± 0.7 ×10^9/L
number of white blood cell account, Day 10 (white blood cells; Day 10: CTX 30 mg/kg x 6 days, then G-CSF 20 μg/kg daily subcutaneously (positive control)): 14.7 ± 1.8 ×10^9/L

From patent publication US8071637B2, “Dithiolopyrrolones compounds and their therapeutic applications” (Welichem Biotech Inc., priority 2006, dated 2011)
